Experiments:
[1] = biological target: T1, AGTR1 (Homo sapiens, UniProt P30556); experiment: DiscoveRx β-arrestin2 recruitment assay (enzyme complementation, Pathunter CHO-K1 AGTR1 β-arrestin cell line); format: cell-based; settings: DiscoveRx β-arrestin2 recruitment
T1 construct: host or cells: Pathunter CHO-K1 AGTR1 β-arrestin cell line (CHO-K1)
T1 sequence (P30556 1-359): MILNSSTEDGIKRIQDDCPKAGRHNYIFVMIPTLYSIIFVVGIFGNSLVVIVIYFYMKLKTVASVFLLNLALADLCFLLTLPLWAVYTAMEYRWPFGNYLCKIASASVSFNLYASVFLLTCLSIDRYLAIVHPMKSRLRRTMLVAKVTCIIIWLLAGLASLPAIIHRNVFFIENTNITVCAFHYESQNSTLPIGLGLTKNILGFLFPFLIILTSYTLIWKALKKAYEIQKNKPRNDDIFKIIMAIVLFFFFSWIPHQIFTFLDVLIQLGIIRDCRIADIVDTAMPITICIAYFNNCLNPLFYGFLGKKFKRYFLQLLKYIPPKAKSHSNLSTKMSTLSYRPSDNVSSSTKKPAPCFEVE
In short: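 CHO-K1 cells expressing AGTR1 with β-arrestin2 enzyme-complementation reporter, plated 14-16 h ahead in 1% serum medium, then exposed to compounds for 90 min at 37° C. Chemiluminescence read after 1 h detection. EC50 (agonist) or IC50 (antagonist) from 4-parameter logistic fit; activity as percentage of All maximal effect.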

[2] = biological target: T2, hAT1R (Homo sapiens, UniProt P30556); experiment: BRET β-arrestin2 biosensor assay, higher receptor expression (hAT1R 5 ng/well), HEK293 cells; format: cell-based; settings: for EC50: High AT1R Expression
T2 sequence (P30556 1-359): T1 sequence (P30556 1-359)

[3] = biological target: T2, hAT1R; experiment: cell-based; settings: section of the 42nd table ending at r951, example numbering restarts after the DiscoveRx section; read-out: β-arrestin2 EC50
[4] = biological target: T2, hAT1R; experiment: BRET Gq biosensor assay, agonist response, HEK293 cells; format: cell-based; settings: section of the 42nd table directly before the BRET P63 section
In short: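 HEK293 cells co-transfected with signal-peptide-optimized hAT1R plus Gαq-Rluc, Gβ1 and GFP-Gγ1, assayed 48 h later in Tyrode's buffer pH 7.4. Coelenterazine (2 μM final) added, then compound; BRET2 (515/410 nm) read after 5 min at room temperature. EC50 by 4-parameter fit, normalized to unstimulated (0%) and maximal AngII (100%).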

[5] = biological target: T2, hAT1R; experiment: cell-based; settings: agonist mode; for EC50: read-out: BRET P63 EC50

| SMILES | EC50 [1] [µM] | DiscoveRx β-arrestin2 Ymax (%) ([1]; maximal response) | BRET β-Arrestin2 High AT1R Expression Ymax (%) [2] [%] | EC50 [2] [µM] | EC50 [3] [µM] | EC50 [4] [µM] | BRET P63 Ymax [5] [%] | EC50 [5] [µM] | DiscoveRx β-arrestin2 Ymax (%) [1] [%] |
| --- | --- | --- | --- | --- | --- | --- | --- | --- | --- |
| CCOc1nc2cccc(C(=O)O)c2n1Cc1ccc(-c2cc(-c3cccc(C)c3)ccc2C(=O)O)cc1 [Example 313, 1-((6′-carboxy-3″-methyl-[1,1′:3′,1″-terphenyl]-4-yl)methyl)-2-ethoxy-1H-benzo[d]imidazole-7-carboxylic acid] | 0.0281 | 46.1 | 92.9 | 0.0077 | 0.0215 | 0.0821 | 6.3 | 0.0467 |  |
| CCOc1nc2cccc(C(=O)O)c2n1Cc1ccc(-c2cc(-c3ccccc3)ccc2C(=O)O)cc1 [Example 314, 1-((6′-carboxy-[1,1′:3′,1″-terphenyl]-4-yl)methyl)-2-ethoxy-1H-benzo[d]imidazole-7-carboxylic acid] | 0.0035 | 66.8 | 90.3 | 0.0058 | 0.0366 | 0.129 | 12.8 | 0.0678 |  |
| CCOc1nc2cccc(C(=O)O)c2n1Cc1ccc(-c2cc(-c3c[nH]c4ccccc34)ccc2-c2noc(=O)[nH]2)cc1 [Example 322] | 0.0392 | 33.7 | 80.9 | 0.0084 | 0.0097 | 0.0933 | 5.1 | 0.0537 |  |
| CCCCc1ncc(C(=O)NCc2cnn(C)c2)n1Cc1ccc(-c2cc(-c3ccccc3)ccc2-c2nn[nH]n2)cc1 [Example 346] | 0.013 | 44.5 | 92.1 | 0.0071 | 0.0111 | 0.0671 | 6.0 | 0.0193 |  |
| CCCCc1nc(Cl)c(C(=O)O)n1Cc1ccc(-c2cc(-c3ccccc3)ccc2-c2nn[nH]n2)cc1 [Example 384, 1-((6′-(2H-tetrazol-5-yl)-[1,1′:3′,1″-terphenyl]-4-yl)methyl)-2-butyl-4-chloro-1H-imidazole-5-carboxylic acid] | 0.008 | 49.3 | 83.8 | 0.0069 | 0.0108 | 0.0391 |  | > 10 |  |
| CCCCc1nc(Cl)c(C(=O)O)n1Cc1ccc(-c2cc(-c3cn(C(C)C)nc3C(F)(F)F)ccc2-c2nn[nH]n2)cc1 [Example 388] | 0.0447 | 71.7 | 96.2 | 0.0046 | 0.0267 | 0.81 | 30.4 | 0.0398 |  |
| CCCCc1nc(Cl)c(C(=O)O)n1Cc1ccc(-c2cc(-c3ccc(C(=O)N(C)C)cc3)ccc2-c2nn[nH]n2)cc1 [Example 390] | 0.0118 | 53.5 | 95.3 | 0.0244 | 0.097 | 0.0237 | 11.9 | 0.127 |  |
| CCCCc1nc(Cl)c(C(=O)O)n1Cc1ccc(-c2cc(-c3c[nH]c4ccccc34)ccc2-c2nn[nH]n2)cc1 [Example 391] | 0.0458 | 23.3 | 78.3 | 0.0117 | 0.011 | 0.181 |  | > 100 |  |
| CCCc1nc(CC)c(C(=O)O)n1Cc1ccc(-c2cc(-c3ccccc3)ccc2-c2nn[nH]n2)cc1 [Example 396, 1-((6′-(2H-tetrazol-5-yl)-[1,1′:3′,1″-terphenyl]-4-yl)methyl)-4-ethyl-2-propyl-1H-imidazole-5-carboxylic acid] | 0.005 | 57.8 | 88.8 | 0.0064 | 0.0141 | 0.274 |  | > 100 |  |
| CCCCc1nc(Cl)c(C(=O)O)n1Cc1ccc(-c2cc(-c3ccccc3)ccc2-c2noc(=O)[nH]2)cc1 [Example 404, 2-butyl-4-chloro-1-((6′-(5-oxo-4,5-dihydro-1,2,4-oxadiazol-3-yl)-[1,1′:3′,1″-terphenyl]-4-yl)methyl)-1H-imidazole-5-carboxylic acid] | 0.0096 | 38.6 | 89.7 | 0.0143 | 0.0694 | 0.0704 |  | > 10 |  |
| CCCCc1nc(Cl)c(C(=O)O)n1Cc1ccc(-c2cc(-c3ccccc3)ccc2C(=O)O)cc1 [Example 410, 2-butyl-1-((6′-carboxy-[1,1′:3′,1″-terphenyl]-4-yl)methyl)-4-chloro-1H-imidazole-5-carboxylic acid] | 0.0269 | 41.9 | 69.7 | 0.0821 | 0.0982 | > 100 |  | > 10 |  |
| CCCCc1nc(Cl)c(C(=O)O)n1Cc1ccc(-c2cc(C3CCCCC3)ccc2-c2nn[nH]n2)cc1 [Example 424, 2-butyl-4-chloro-1-((5′-cyclohexyl-2′-(2H-tetrazol-5-yl)-[1,1′-biphenyl]-4-yl)methyl)-1H-imidazole-5-carboxylic acid] | 0.0993 | 28.6 | 76.7 | 0.0678 | 0.0353 | 2.79 |  | > 100 |  |
| CCCCC(=O)N(Cc1ccc(-c2cc(-c3cc(C)ccn3)ccc2-c2nn[nH]n2)cc1)[C@H](C(=O)O)C(C)C [Example 445] | 0.0377 |  | 91.3 | 0.0098 | 0.036 | 0.14 | 24.0 | 0.103 | 61.2 |

Source: US12037324B2, “Biarylmethyl heterocycles” (Université de Montréal, priority 2016, dated 2024)
